Results published in US7423015B1, “Antihelminthic drugs as a treatment for hyperproliferative diseases” (Board of Regents, The University of Texas System, priority 2001, dated 2008).

Key:
Assay type in all cases: cell-based, human
p53 protein [1] = test: p53 induction, immunoblot analysis of nuclear extracts; settings: H460; 0.05 μg/ml, exposure 1 to 24 hr
Description: Cells were grown in 6-cm dishes, cultured, and treated as described above. To prepare the whole-cell lysates, the medium was removed and cells were washed twice with ice-cold Tris-buffered saline (TBS) (150 mM NaCl, 10 mM Tris; pH 7.6) and lysed with 0.5 ml of lysis buffer (10 mM Tris, 150 mM NaCl, 1% Triton X-100, 5 mM EDTA, 25 mM glycerphosphate, 1 mM phenylmethylsulphonyl fluoride (PMSF), 2 mM benzamidine, […], and 1 mM sodium orthovanadate) for 15 min. The lysed cells were then transferred to 1.5 ml microtubes, centrifuged at 15,000×g for 10 min at 4° C., and the supernatants collected mixed with Laemmli's sample buffer and subjected to western blot analysis as described elsewhere (Nare et al., 1994). Blots were probed with anti-p53 monoclonal antibody Bp53-12 (Santa Cruz Biotechnology, Inc.) and the immunocomplex was detected by the Enhanced Chemiluminescence kit according to the manufacturer's directions (Amersham).
(§1) Cell extracts were prepared from H460 cells exposed to 0.05 μg/ml FZ or MZ for various durations (1 to 24 hr). The effect of FZ and MZ on the nuclear accumulation of p53 appeared to be gradual and was not significant within the first hour of exposure. […] The appearance of p53 in response to drug treatment also coincided with the initiation of apoptosis, which was detectable by 24 hr, as well as shown earlier by TdT FACS analysis. […] Total RNA was extracted and […] was used for the analysis. p53 protein was detected by immunoblot analysis.

H460 cells = test: Induction of apoptosis in H460 (Hoechst 33342, TUNEL, TdT FACS)
Description: Cells were seeded onto chamber slides and treated with various reagents, after which cell monolayers were washed twice with ice-cold PBS (pH 7.4). Thereafter, cells were fixed for 5 min at 20° C. in 10% formalin. The washing step with PBS was then repeated once. To stain the nuclei, the cells were incubated for 10 min with 10 μg/ml of Hoechst 33342 and then washed with PBS. The coverslips with the stained cells were mounted in 80% glycerol in PBS containing 1 mg/ml P-phenylenediamine and examined with a Nikon epifluorescence microscope.
Apoptotic assay was done using M30 CytoDEATH apoptotic cell death assay kit (Boehringer Mannnheim). Cells were grown on chamber slides, control and benzimidazole treated cells were stained with Mouse monoclonal antibody (clone M30) as per manufacturer's instructions. […] Flow cytometry was carried out in a fluorescence-activated cell sorter (Epics Elite; Coulter, Inc., Hialeah, Fla.).
The inventors tested the effect of BZ treatment on the human NSCLC cell line H460. […] Chromatin condensation was noted under a fluorescence microscope at 24 h after treatment, by staining the nuclei with Hoechst 33342 fluorescent dye. […] Gross morphological changes associated with a loss of viability were observed by 24 hr post-treatment, whereas signs of apoptosis, detected by DNA staining and TUNEL assays, became apparent by 24 hr after drug treatment.

p21/WAF1 transcript = test: Northern blot analysis in H460 cells; settings: at the time the p53 level peaked
Description: (§2) Total RNA was isolated from the subconfluent cultures using the guanidinium thisocyanate method (Lacey, 1988). After this 20 μg of the RNA was electrophoresed in a denaturing 1.2% agarose/morpholinepropanesulfonic acid (MOPS)-formaldehyde gel, transferred onto a nitrocellulose membrane, and hybridized to a ^32P-radiolabeled p53 cDNA probe, as described elsewhere (Lubiga and Prichard, 1990). The ^32P-labeled probes were generated using random primers (>8×10^8 cpm/μg). Blots were washed at 65° C. in 2× standard saline citrate (SSC) for 30 min and then washed twice at 60° C. in 0.1% sodium dodecyl sulfate (SDS) and 0.1×SSC. The cDNA probes used were 1.2-kb human p53 cDNA and an 800-bp fragment of human p21 cDNA.
as §1

p53 mRNA = test: Northern blot analysis in H460 cells; settings: 0.05 μg/ml, 24 hr
Description: as §2, §1

p53 protein [2] = test: p53 induction, immunoblot analysis of nuclear extracts; parameters: p53 Induction: dose or concentration left out as unconfirmed

COC(=O)Nc1nc2ccc(Sc3ccccc3)cc2[nH]1 [Fenbendazole, methy 5-(phenylthio)-2-benzimidazole-2-carbamate]
time at which nuclear accumulation of p53 became significantly detectable (p53 protein [1]): about 16 hr | time at which nuclear accumulation of p53 peaked (p53 protein [1]): 24 h | apoptotic effect on H460 cells (H460 cells): apoptotic effect | level of the p21/WAF1 transcript (p21/WAF1 transcript): significantly increased | p53 mRNA levels (p53 mRNA): no significant changes | p53 Induction (p53 protein [2]; H226Br): No | p53 Induction (p53 protein [2]; H322): No | p53 Induction (p53 protein [2]; H358): No | concentration at which induction of p53 became detectable (p53 protein [2]; H460): 0.01 µg/mL | p53 Induction (p53 protein [2]; H460): Yes | p53 Induction (p53 protein [2]; H549): Yes | p53 Induction (p53 protein [2]; H596): No | p53 Induction (p53 protein [2]; H1299): No | p53 Induction (p53 protein [2]; HeLa): No | induction of p53 production (p53 protein [2]; HeLa (HPV-18) and SiHa (HPV-16) cells, 48 h, total cell proteins): no induction | p53 Induction (p53 protein [2]; Hep 3B): No | p53 Induction (p53 protein [2]; MCF-7): Yes | p53 Induction (p53 protein [2]; MDA 231): No | p53 Induction (p53 protein [2]; RD): No | p53 Induction (p53 protein [2]; SK-OV-433): Yes | p53 Induction (p53 protein [2]; SW480): No | p53 Induction (p53 protein [2]; Saos-2): No | p53 Induction (p53 protein [2]; SiHa): No

COC(=O)Nc1nc2ccc(C(=O)c3ccccc3)cc2[nH]1 [Mebendazole, Methyl 5-benzoylbenzimidazole-2-carbamate]
time at which nuclear accumulation of p53 became significantly detectable (p53 protein [1]): about 16 hr | time at which nuclear accumulation of p53 peaked (p53 protein [1]): 24 h | apoptotic effect on H460 cells (H460 cells): apoptotic effect | level of the p21/WAF1 transcript (p21/WAF1 transcript): significantly increased | p53 mRNA levels (p53 mRNA): no significant changes | p53 Induction (p53 protein [2]; H226Br): No | p53 Induction (p53 protein [2]; H322): No | p53 Induction (p53 protein [2]; H358): No | p53 Induction (p53 protein [2]; H460): Yes | p53 Induction (p53 protein [2]; H549): Yes | p53 Induction (p53 protein [2]; H596): No | p53 Induction (p53 protein [2]; H1299): No | p53 Induction (p53 protein [2]; HeLa): No | p53 Induction (p53 protein [2]; Hep 3B): No | p53 Induction (p53 protein [2]; MCF-7): Yes | p53 Induction (p53 protein [2]; MDA 231): No | p53 Induction (p53 protein [2]; RD): No | p53 Induction (p53 protein [2]; SK-OV-433): Yes | p53 Induction (p53 protein [2]; SW480): No | p53 Induction (p53 protein [2]; Saos-2): No | p53 Induction (p53 protein [2]; SiHa): No
